{
  "source": "ChEMBL document CHEMBL1201862",
  "about": "“PubChem BioAssay data set” (2004)",
  "key": {"[1]": {"assay": "Counterscreen for AddAB inhibitors: absorbance-based bacterial cell-based high throughput dose response assay for inhibitors of bacterial viability. [Related pubchem assays (depositor defined):AID435030, AID449728, AID449731, AID488942, AID488955, AID488956]", "format": "functional"}, "Hexokinase HKDC1": {"target": "Hexokinase HKDC1 (Homo sapiens, UniProt Q2TB90)", "sequence (Q2TB90 whole entry)": "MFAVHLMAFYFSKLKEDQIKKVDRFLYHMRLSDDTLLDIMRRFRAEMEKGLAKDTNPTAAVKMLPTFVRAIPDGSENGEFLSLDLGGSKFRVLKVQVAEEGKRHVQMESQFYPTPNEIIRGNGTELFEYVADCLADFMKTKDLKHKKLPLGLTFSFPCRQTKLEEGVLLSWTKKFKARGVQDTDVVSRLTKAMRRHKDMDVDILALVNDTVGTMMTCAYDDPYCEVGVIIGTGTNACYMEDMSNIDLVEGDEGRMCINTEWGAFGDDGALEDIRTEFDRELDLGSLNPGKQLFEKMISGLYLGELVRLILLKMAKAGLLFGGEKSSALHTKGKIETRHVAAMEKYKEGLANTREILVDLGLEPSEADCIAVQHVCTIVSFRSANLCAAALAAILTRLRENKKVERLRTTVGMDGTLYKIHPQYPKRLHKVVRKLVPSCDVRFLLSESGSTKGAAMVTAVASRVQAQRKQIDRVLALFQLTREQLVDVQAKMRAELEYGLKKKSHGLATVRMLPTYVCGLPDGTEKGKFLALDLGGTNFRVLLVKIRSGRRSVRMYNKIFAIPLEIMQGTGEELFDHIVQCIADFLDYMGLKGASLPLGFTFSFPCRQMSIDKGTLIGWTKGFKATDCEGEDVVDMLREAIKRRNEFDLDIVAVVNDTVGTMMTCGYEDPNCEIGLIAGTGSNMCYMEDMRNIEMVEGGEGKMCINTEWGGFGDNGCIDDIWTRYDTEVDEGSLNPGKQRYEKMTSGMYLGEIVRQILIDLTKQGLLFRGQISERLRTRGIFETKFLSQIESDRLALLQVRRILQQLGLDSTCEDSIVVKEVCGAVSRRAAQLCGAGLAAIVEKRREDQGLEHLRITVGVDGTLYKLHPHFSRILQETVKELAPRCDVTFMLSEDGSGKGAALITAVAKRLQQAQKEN", "assay": "inhibition of HKDC1 glucose phosphorylation – biochemical, W721R variant, dose response (AID 504729)", "format": "functional"}, "A-375": {"system": "A-375", "assay": "MITF: Counter assay: A375 proliferation Measured in Cell-Based System Using Plate Reader - 2084-03_Inhibitor_Dose_DryPowder_Activity. [Related pubchem assays (depositor defined):AID488944]", "format": "functional", "details": "Homo sapiens"}, "Genome polyprotein": {"target": "Genome polyprotein (dengue virus type 2, UniProt P29990)", "sequence (P29990 2492-3391 limits assumed)": "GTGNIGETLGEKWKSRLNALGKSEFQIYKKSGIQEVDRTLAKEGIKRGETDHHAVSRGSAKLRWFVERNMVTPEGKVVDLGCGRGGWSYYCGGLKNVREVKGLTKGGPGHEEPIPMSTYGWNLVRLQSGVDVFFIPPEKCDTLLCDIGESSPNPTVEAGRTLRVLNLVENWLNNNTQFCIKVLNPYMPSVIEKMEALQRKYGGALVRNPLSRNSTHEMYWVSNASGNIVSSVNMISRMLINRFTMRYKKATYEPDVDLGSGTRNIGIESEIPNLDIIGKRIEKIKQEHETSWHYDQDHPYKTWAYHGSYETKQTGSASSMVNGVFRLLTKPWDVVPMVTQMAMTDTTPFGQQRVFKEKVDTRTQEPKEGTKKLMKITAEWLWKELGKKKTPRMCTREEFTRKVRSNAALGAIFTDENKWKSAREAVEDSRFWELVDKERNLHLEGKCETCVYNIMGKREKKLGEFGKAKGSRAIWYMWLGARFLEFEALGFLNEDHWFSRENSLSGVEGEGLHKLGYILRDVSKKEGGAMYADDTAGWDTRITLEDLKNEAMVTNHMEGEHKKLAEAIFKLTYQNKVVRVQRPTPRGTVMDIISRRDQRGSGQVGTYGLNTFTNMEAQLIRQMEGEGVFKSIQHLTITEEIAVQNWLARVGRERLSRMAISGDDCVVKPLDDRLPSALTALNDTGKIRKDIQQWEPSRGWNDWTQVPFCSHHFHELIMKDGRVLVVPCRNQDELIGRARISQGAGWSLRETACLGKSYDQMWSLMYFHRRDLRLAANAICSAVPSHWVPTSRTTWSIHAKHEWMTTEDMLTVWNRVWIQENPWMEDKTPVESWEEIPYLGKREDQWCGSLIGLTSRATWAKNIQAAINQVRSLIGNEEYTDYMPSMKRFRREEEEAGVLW", "assay": "flavivirus cap methylation enzyme inhibition – biochemical, confirmation dose response, primary screen (AID 588689)", "format": "functional"}, "BJ [2]": {"system": "BJ", "assay": "BJ-TERT-LT-ST fibroblast viability loss – cell-based, RAS-independent, luminescence, dose response (AID 1935);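 further: BJ fibroblasts immortalized with TERT plus LT and ST oncogenes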", "format": "functional", "details": "Homo sapiens"}, "CAAX prenyl protease 1": {"target": "T1, CAAX prenyl protease 1 (Saccharomyces cerevisiae S288c, UniProt P47154)", "T1 sequence (P47154 whole entry)": "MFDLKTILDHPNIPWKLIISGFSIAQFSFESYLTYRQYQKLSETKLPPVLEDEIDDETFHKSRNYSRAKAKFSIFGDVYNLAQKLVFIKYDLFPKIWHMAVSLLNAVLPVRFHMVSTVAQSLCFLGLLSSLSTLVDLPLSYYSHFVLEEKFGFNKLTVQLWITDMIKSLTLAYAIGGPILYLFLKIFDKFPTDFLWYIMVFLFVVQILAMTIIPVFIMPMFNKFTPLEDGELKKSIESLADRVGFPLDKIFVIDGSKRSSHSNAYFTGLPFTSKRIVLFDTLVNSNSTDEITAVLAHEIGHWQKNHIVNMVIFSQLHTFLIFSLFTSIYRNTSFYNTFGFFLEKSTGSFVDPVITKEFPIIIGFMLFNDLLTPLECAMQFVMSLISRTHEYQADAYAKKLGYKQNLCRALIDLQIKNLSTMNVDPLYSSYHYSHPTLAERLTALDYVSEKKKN", "assay": "yeast CAAX protease Ste24 inhibition – biochemical, S. cerevisiae, plate reader, cherry-pick, dose response (AID 488815)"}, "BJ [3]": {"system": "BJ", "assay": "growth inhibition of engineered Ras-driven BJ cells – cell-based, alamar blue fluorescence, cherrypicked samples, dose response (AID 2631)", "format": "functional", "details": "Homo sapiens"}, "HEK293": {"system": "HEK293", "assay": "optical interference in Abeta FP readout, dose response, artefact control for IDE activator project, biochemical, fluorescence polarization (AID 588442)", "format": "functional, cell-based", "details": "Homo sapiens"}, "[4]": {"target": "T2, Long-chain-fatty-acid--AMP ligase FadD28 (Mycobacterium tuberculosis, UniProt P9WQ59)", "T2 sequence (P9WQ59 whole entry)": "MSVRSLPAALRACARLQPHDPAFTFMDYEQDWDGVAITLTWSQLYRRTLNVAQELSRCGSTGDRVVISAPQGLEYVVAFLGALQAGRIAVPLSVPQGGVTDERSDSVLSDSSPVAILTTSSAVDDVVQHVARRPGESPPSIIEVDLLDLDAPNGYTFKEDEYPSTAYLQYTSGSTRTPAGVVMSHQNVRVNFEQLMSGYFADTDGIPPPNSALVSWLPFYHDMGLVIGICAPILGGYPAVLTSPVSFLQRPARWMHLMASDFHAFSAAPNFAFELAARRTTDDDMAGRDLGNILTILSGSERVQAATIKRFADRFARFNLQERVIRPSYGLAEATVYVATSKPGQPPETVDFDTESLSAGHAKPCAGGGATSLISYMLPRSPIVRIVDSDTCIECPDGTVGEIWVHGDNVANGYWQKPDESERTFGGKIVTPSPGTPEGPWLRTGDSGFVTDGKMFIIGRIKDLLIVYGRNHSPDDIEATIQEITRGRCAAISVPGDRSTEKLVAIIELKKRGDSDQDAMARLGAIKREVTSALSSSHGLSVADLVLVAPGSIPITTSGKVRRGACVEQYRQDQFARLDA", "assay": "Fluorescence polarization aasay to screen for inhibitors that compete for the binding of FadD28 to a bisubstrate Measured in Biochemical System Using Plate Reader - 2147-01_Inhibitor_Dose_CherryPick_Activity.", "format": "functional, Mycobacterium tuberculosis H37Rv"}, "[5]": {"target": "Serine/threonine-protein kinase 17A (Homo sapiens, UniProt Q9UEE5)", "sequence (Q9UEE5 whole entry)": "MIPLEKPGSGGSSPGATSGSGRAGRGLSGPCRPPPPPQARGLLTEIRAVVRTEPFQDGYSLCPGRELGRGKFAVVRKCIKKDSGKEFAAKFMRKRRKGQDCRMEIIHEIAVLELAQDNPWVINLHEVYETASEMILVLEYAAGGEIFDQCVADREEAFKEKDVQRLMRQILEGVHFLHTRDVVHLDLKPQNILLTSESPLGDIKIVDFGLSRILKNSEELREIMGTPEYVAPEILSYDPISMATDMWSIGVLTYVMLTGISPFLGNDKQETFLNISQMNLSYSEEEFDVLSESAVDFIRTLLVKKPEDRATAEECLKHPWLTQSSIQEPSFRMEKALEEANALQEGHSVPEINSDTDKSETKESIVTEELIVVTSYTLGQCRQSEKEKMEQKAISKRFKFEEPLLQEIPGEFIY", "format": "functional"}, "[6]": {"target": "Calcium/calmodulin-dependent protein kinase type II subunit delta (Homo sapiens, UniProt Q13557)", "sequence (Q13557 whole entry)": "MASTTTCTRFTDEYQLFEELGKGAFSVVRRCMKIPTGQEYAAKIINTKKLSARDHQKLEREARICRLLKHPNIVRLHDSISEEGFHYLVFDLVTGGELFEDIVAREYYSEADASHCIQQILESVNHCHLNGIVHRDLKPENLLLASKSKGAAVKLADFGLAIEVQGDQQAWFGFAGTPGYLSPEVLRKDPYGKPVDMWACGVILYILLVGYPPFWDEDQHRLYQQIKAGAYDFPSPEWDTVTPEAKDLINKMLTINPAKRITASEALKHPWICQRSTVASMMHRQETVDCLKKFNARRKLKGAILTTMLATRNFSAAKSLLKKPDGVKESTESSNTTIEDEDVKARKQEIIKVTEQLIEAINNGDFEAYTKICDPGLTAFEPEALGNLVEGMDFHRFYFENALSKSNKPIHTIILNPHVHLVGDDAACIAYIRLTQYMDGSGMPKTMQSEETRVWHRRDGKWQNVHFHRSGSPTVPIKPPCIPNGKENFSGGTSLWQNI", "format": "functional"}, "[7]": {"target": "T3, Mannose-6-phosphate isomerase (Homo sapiens, UniProt P34949)", "T3 sequence (P34949 whole entry)": "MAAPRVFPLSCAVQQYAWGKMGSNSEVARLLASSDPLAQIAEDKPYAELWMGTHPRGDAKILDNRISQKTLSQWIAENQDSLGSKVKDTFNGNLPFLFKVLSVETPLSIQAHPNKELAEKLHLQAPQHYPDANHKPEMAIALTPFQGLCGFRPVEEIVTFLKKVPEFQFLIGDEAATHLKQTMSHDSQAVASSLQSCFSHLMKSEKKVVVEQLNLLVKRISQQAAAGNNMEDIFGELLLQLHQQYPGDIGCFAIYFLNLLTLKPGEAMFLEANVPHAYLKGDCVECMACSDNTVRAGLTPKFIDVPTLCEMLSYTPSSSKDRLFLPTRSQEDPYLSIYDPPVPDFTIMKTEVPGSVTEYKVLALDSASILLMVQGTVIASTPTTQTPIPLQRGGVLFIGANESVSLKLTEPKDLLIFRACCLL", "assay": "MPI enzyme activity inhibition – biochemical, fluorescence intensity, coupled assay, primary screen (AID 1209)"}},
  "note": "Active and inactive are the calls of the source.",
  "data": [
    {"smiles": "CC(C)CC(=O)NC(c1cccs1)c1ccc2cccnc2c1O", "note": "(centres undefined)", "values": [
      {"measurement": "IC50", "setting": "[1]", "result": "> 119 µM (inactive)"}
    ]},
    {"smiles": "CCOC(=O)c1ccc(NC2=CC(=O)C(=O)c3ccccc32)cc1", "values": [
      {"measurement": "IC50", "setting": "Hexokinase HKDC1", "result": "43.9 µM (inactive)"},
      {"measurement": "AC50", "setting": "A-375", "result": "6.65 µM (active)"},
      {"measurement": "IC50", "setting": "Genome polyprotein", "result": "> 100 µM (active)"}
    ]},
    {"smiles": "OC(CNCCC1C=Nc2ccccc21)Cn1c2ccc(Cl)cc2c2cc(Cl)ccc21", "note": "(centres undefined)", "values": [
      {"measurement": "EC50", "setting": "BJ [2]", "result": "5.42 µM (inconclusive)"},
      {"measurement": "AC50", "setting": "CAAX prenyl protease 1", "result": "4.42 µM (active)"},
      {"measurement": "EC50", "setting": "BJ [3]", "result": "4.36 µM (inconclusive)"},
      {"measurement": "EC50", "setting": "HEK293", "result": "> 56 µM (inactive)"}
    ]},
    {"smiles": "CCCCCCCCCCCCCCCC[N+](C)(C)C", "values": [
      {"measurement": "AC50", "setting": "[4]", "result": "12.7 µM (active)"}
    ]},
    {"smiles": "NC1CCC(Nc2nc(Cl)cc(-c3c[nH]c4ncccc34)n2)CC1", "note": "(centres undefined)", "values": [
      {"measurement": "Ki", "setting": "[5]", "result": "0.0316 µM (active)"},
      {"measurement": "pKi", "setting": "[5]", "result": 7.5},
      {"measurement": "Ki", "setting": "[6]", "result": "0.251 µM (active)"},
      {"measurement": "pKi", "setting": "[6]", "result": 6.6}
    ]},
    {"smiles": "Cc1ccccc1-c1cc2c(nn1)-c1ccccc1C2=O", "values": [
      {"measurement": "IC50", "setting": "[7]", "result": "> 50 µM (not active)"}
    ]}
  ]
}
